Assay type in all cases: cell-based, human
One assay deals with HTT mRNA. Kind of assay: RT-qPCR splicing assay, HTT canonical (CJ) and alternative (AJ) junction mRNA. The note with it: Homo sapiens; for AC50: read-out: HTT AJ (AC50, increase in AJ mRNA). Summed up: (§1)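 Junction-specific RT-qPCR read the canonical exon-exon junction and the compound-induced alternative-exon junction, normalized to GAPDH, GUSB or PPIA and then to DMSO (2^(-ΔΔCt)). Input was lysate from A673 or K562 cells exposed for 24 h to compound up to 10 uM.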

For a further assay, the system named is MYB mRNA. Nature of the assay: RT-qPCR splicing assay, MYB canonical (CJ) and alternative (AJ) junction mRNA. The note with it: Homo sapiens; for AC50: read-out: MYB AJ (AC50, increase in AJ mRNA). Summed up: as §1
The next assay concerns SMN2 mRNA. Nature of the assay: RT-qPCR splicing assay panel, SMN2 canonical junction (CJ) mRNA. The following applies: Homo sapiens. Summed up: as §1
The subject of a further assay is Target C mRNA. Kind of assay: RT-qPCR splicing assay panel, Target C canonical junction (CJ) mRNA. The following applies: Homo sapiens. Summed up:
as §1

Setting [1] is: 24 h, Table 3A, A673 or K562 cells, 24 h treatment.
Where [2] appears, read: 24 h, Table 3A, A673 or K562 cells, 24 h treatment, read-out: HTT CJ (IC50, decrease in CJ mRNA).
[3] abbreviates: canonical junction (CJ) mRNA, RT-qPCR panel, Table 4A, read-out: HTT, decrease in CJ mRNA levels, IC50.
The mark [4] stands for this setting: 24 h, Table 3A, A673 or K562 cells, 24 h treatment, read-out: MYB CJ (IC50, decrease in CJ mRNA).
Where [5] appears, read: canonical junction (CJ) mRNA, RT-qPCR panel, Table 4A, read-out: MYB, decrease in CJ mRNA levels, IC50.
Setting [6] is: canonical junction (CJ) mRNA, RT-qPCR panel, Table 4A, read-out: SMN2, decrease in CJ mRNA levels, IC50.
[7] abbreviates: canonical junction (CJ) mRNA, RT-qPCR panel, Table 4A, read-out: Target C, decrease in CJ mRNA levels, IC50.
The mark [8] stands for this setting: 24 h, Table 3B, A673 or K562 cells, 24 h treatment.

SMILES strings stand for the structures. Like-named read-outs stand apart in the source and are kept apart here.

In the case of `Oc1cc(-c2cn[nH]c2)ccc1-c1ccc(N2CCN[C@@H](C3CC3)C2)nn1` [Compound 263], the results for the AC50 with HTT mRNA (setting [1]) and in the assay with MYB mRNA (setting [1]) were under 100 nM and 100 to 1000 nM, respectively. Moreover, the IC50 in the assay on HTT mRNA (setting [2]) is under 100 nM; in the assay on HTT mRNA (setting [3]), under 100 nM; in the assay with MYB mRNA (setting [4]), 100 to 1000 nM; with MYB mRNA (setting [5]), 100 to 1000 nM; in the assay with SMN2 mRNA (setting [6]), under 100 nM; with Target C mRNA (setting [7]), 100 to 1000 nM.

On to `COc1cc(-c2cc(O)c(-c3ccc(N4CC[C@@H](NC(C)(C)C)C4)nn3)cc2F)ncn1` [Compound 396], for which the AC50 with HTT mRNA (setting [1]) and in the assay on MYB mRNA (setting [1]) was 1000 to 10000 nM each time. The IC50 was 100 to 1000 nM with HTT mRNA (setting [2]); 100 to 1000 nM in the assay on HTT mRNA (setting [3]); 1000 to 10000 nM in the assay with MYB mRNA (setting [4]); 1000 to 10000 nM with MYB mRNA (setting [5]); under 100 nM in the assay on SMN2 mRNA (setting [6]); 1000 to 10000 nM with Target C mRNA (setting [7]).

Turning to `Cc1ncc(-c2cc(O)c(-c3ccc(N4CC[C@@H](N[C@H](C)C5CC5)C4)nn3)cc2F)s1` [Compound 418], the AC50 in the assay with HTT mRNA (setting [1]) and with MYB mRNA (setting [1]) was under 100 nM each time. In addition, the IC50 with HTT mRNA (setting [2]), in the assay on HTT mRNA (setting [3]), in the assay with MYB mRNA (setting [4]), in the assay with MYB mRNA (setting [5]), in the assay with SMN2 mRNA (setting [6]) and in the assay on Target C mRNA (setting [7]) was under 100 nM throughout.

For the molecule `COc1cc2cc(-c3ccc(N4CCC(NC(C)(C)C)C4)nn3)c(O)cc2nn1` (stereo not shown) [Compound 819], the concentration at half-maximal activity (AC50) with HTT mRNA (setting [8]) and in the assay on MYB mRNA (setting [8]) was 1000 to 10000 nM throughout. Besides, the half-inhibitory concentration (IC50) lay within 1000 to 10000 nM in the assay with HTT mRNA (24 h, Table 3B, A673 or K562 cells, 24 h treatment, read-out: HTT CJ (IC50, decrease in CJ mRNA)); 1000 to 10000 nM in the assay with HTT mRNA (Table 4B, gene panel, read-out: HTT (IC50, decrease in CJ mRNA levels)); 1000 to 10000 nM in the assay with MYB mRNA (24 h, Table 3B, A673 or K562 cells, 24 h treatment, read-out: MYB CJ (IC50, decrease in CJ mRNA)); 1000 to 10000 nM in the assay on MYB mRNA (Table 4B, gene panel, read-out: MYB (IC50, decrease in CJ mRNA levels)); 100 to 1000 nM in the assay on SMN2 mRNA (Table 4B, gene panel, read-out: SMN2 (IC50, decrease in CJ mRNA levels)); 1000 to 10000 nM in the assay with Target C mRNA (Table 4B, gene panel, read-out: Target C (IC50, decrease in CJ mRNA levels)).

For `COc1cc(-c2cc(O)c(-c3ccc(N4CC[C@@](C)(NCC5CC5)C4)nn3)cc2F)cnn1` [Compound 451, 2-{6-[(3R)-3-[(cyclopropylmethyl)amino]-3-methylpyrrolidin-1-yl]pyridazin-3-yl}-4-fluoro-5-(6-methoxypyridazin-4-yl)phenol], the AC50 in the assay with HTT mRNA (setting [1]) and with MYB mRNA (setting [1]) was 100 to 1000 nM each time. For the same molecule, the IC50 is under 100 nM in the assay on HTT mRNA (setting [2]); under 100 nM in the assay on HTT mRNA (setting [3]); 100 to 1000 nM in the assay on MYB mRNA (setting [4]); 100 to 1000 nM with MYB mRNA (setting [5]); under 100 nM in the assay on SMN2 mRNA (setting [6]); 100 to 1000 nM in the assay with Target C mRNA (setting [7]).

On to `Cc1ncc(-c2cc(O)c(-c3ccc(N4CC[C@H](N(C)C(C)(C)C)C4)nn3)cc2F)s1` [Compound 322, 2-{6-[(3S)-3-[tert-butyl(methyl)amino]pyrrolidin-1-yl]pyridazin-3-yl}-4-fluoro-5-(2-methyl-1,3-thiazol-5-yl) phenol], for which the AC50 with HTT mRNA (setting [1]) and in the assay with MYB mRNA (setting [1]) was under 100 nM each time. Moreover, the 50% inhibitory concentration (IC50) in the assay with HTT mRNA (setting [2]), with HTT mRNA (setting [3]), in the assay with MYB mRNA (setting [4]), with MYB mRNA (setting [5]), with SMN2 mRNA (setting [6]) and in the assay on Target C mRNA (setting [7]) was under 100 nM throughout.

Turning to `COc1cc(-c2ccc(-c3ccc(N4CCC(N[C@H]5C[C@@H](O)C5)C4)nn3)c(O)c2)cnn1` (stereo partly shown) [Compound 403, 5-(6-methoxypyridazin-4-yl)-2-[6-(3-{[(1s,3s)-3-hydroxycyclobutyl]amino}pyrrolidin-1-yl)pyridazin-3-yl]phenol], the AC50 in the assay with HTT mRNA (setting [1]) was in the range of 100 to 1000 nM; in the assay on MYB mRNA (setting [1]) it was 1000 to 10000 nM. In addition, the IC50 in the assay on HTT mRNA (setting [2]) was under 100 nM; with HTT mRNA (setting [3]), under 100 nM; in the assay with MYB mRNA (setting [4]) it was 100 to 1000 nM; in the assay on MYB mRNA (setting [5]), 100 to 1000 nM; in the assay on SMN2 mRNA (setting [6]), under 100 nM; with Target C mRNA (setting [7]) it was 100 to 1000 nM.

Take `CN(C1CCC1)[C@@H]1CCN(c2ccc(-c3cc(F)c(-c4cn[nH]c4)cc3O)nn2)C1` [Compound 314, 2-{6-[(3R)-3-[cyclobutyl(methyl)amino]pyrrolidin-1-yl]pyridazin-3-yl}-4-fluoro-5-(1H-pyrazol-4-yl)phenol]: the AC50 with HTT mRNA (setting [1]) and with MYB mRNA (setting [1]) was 100 to 1000 nM throughout. Further, the IC50 with HTT mRNA (setting [2]) was under 100 nM; with HTT mRNA (setting [3]), under 100 nM; with MYB mRNA (setting [4]) it was 1000 to 10000 nM; with MYB mRNA (setting [5]), 1000 to 10000 nM; in the assay on SMN2 mRNA (setting [6]), under 100 nM; in the assay with Target C mRNA (setting [7]) it was 100 to 1000 nM.

The values are drawn from patent publication US20250333397A1 (REMIX THERAPEUTICS INC., priority 2021, published 2025).
